Laboratory results reported in patent publication US20250074920A1, “MACROCYCLIC COMPOUNDS AND USE AS KINASE INHIBITORS” (BLOSSOMHILL THERAPEUTICS, INC., priority 2022, published 2025).

Columns and labels:
Assay in all cases: KINOMEscan kinase binding assay
[1] = system: ABL1(H396P)-phosphorylated; settings: at 1 μM
Experimental: (§1) Kinase binding assays were performed at Eurofins/DiscoveRx using the general KINOMEscan Protocol (Fabian, M. A. et al., “A small molecule-kinase interaction map for clinical kinase inhibitors,” Nat. Biotechnol. 2005, 23(3):329-36). For most assays, kinase-tagged T7 phage strains were prepared in an E. coli host derived from the BL21 strain. E. coli were grown to log-phase and infected with T7 phage and incubated with shaking at 32° C. until lysis. The lysates were centrifuged and filtered to remove cell debris. The remaining kinases were produced in HEK-293 cells and subsequently tagged with DNA for qPCR detection. Streptavidin-coated magnetic beads were treated with biotinylated small molecule ligands for 30 minutes at room temperature to generate affinity resins for kinase assays. The liganded beads were blocked with excess biotin and washed with blocking buffer (SeaBlock (Pierce), 1% BSA, 0.05% Tween 20, 1 mM DTT) to remove unbound ligand and to reduce nonspecific binding. Binding reactions were assembled by combining kinases, liganded affinity beads, and test compounds in 1× binding buffer (20% SeaBlock, 0.17×PBS, 0.05% Tween 20, 6 mM DTT). All reactions were performed in polystyrene 96-well plates in a final volume of 0.135 mL. The assay plates were incubated at room temperature with shaking for 1 hour and the affinity beads were washed with wash buffer (1×PBS, 0.05% Tween 20). The beads were then re-suspended in elution buffer (1×PBS, 0.05% Tween 20, 0.5 μM non-biotinylated affinity ligand) and incubated at room temperature with shaking for 30 minutes. The kinase concentration in the eluates was measured by qPCR. Results for compounds tested in this assay at a given concentration are reported as “% Ctrl”, where lower numbers indicate stronger binding in the matrix. % Ctrl was calculated as (test compound signal-positive control signal)/(negative control signal-positive control signal)×100. Dissociation constants (Kds) for test compound-kinase interactions were calculated by measuring the amount of kinase captured on the solid support as a function of the test compound concentration.

[2] = system: FAK; settings: at 1 μM
Experimental: as §1

[3] = system: KIT(V559D, T670I); settings: at 1 μM
Experimental: as §1

[4] = system: FLT3; settings: at 1 μM
Experimental: as §1

[5] = system: JAK1(JH2domain-pseudokinase); settings: for % Ctrl: JAK1(JH2domain-pseudokinase), at 1 μM; for Kd: read-out: JAK1(JH2 domain-pseudokinase) Kd
Experimental: as §1

[6] = system: RET(M918T); settings: at 1 μM
Experimental: as §1

[7] = system: FGFR1; settings: at 1 μM
Experimental: as §1

[8] = system: ABL1(T315I)-nonphosphorylated; settings: at 1 μM
Experimental: as §1

[9] = system: EGFR(L747-E749del, A750P); settings: at 1 μM
Experimental: as §1

[10] = system: ZAP70; settings: at 1 μM
Experimental: as §1

[11] = system: EPHA3; settings: at 1 μM
Experimental: as §1

[12] = system: FLT3(D835H); settings: at 1 μM
Experimental: as §1

[13] = system: ABL1(T315I)-phosphorylated; settings: at 1 μM
Experimental: as §1

[14] = system: MET; settings: at 1 μM
Experimental: as §1

[15] = system: FLT3(N841I); settings: at 1 μM
Experimental: as §1

[16] = system: FLT1; settings: at 1 μM
Experimental: as §1

[17] = system: AXL; settings: at 1 μM
Experimental: as §1

[18] = system: KIT(D816H); settings: at 1 μM
Experimental: as §1

[19] = system: RET; settings: at 1 μM
Experimental: as §1

[20] = system: FGFR3; settings: at 1 μM
Experimental: as §1

[21] = system: ABL1(Y253F)-phosphorylated; settings: at 1 μM
Experimental: as §1

[22] = system: EPHB1; settings: at 1 μM
Experimental: as §1

[23] = system: FGFR4; settings: at 1 μM
Experimental: as §1

[24] = system: SYK; settings: at 1 μM
Experimental: as §1

[25] = system: FER; settings: at 1 μM
Experimental: as §1

[26] = system: KIT(A829P); settings: at 1 μM
Experimental: as §1

[27] = system: FES; settings: at 1 μM
Experimental: as §1

[28] = system: TYK2(JH1domain-catalytic); settings: for % Ctrl: TYK2(JH1domain-catalytic), at 1 μM; for Kd: read-out: TYK2(JH1 domain-catalytic) Kd
Experimental: as §1

[29] = system: BMX; settings: at 1 μM
Experimental: as §1

[30] = system: DDR2; settings: at 1 μM
Experimental: as §1

[31] = system: ABL1(F317L)-phosphorylated; settings: at 1 μM
Experimental: as §1

[32] = system: ABL1(Q252H)-nonphosphorylated; settings: at 1 μM
Experimental: as §1

[33] = system: ABL2; settings: at 1 μM
Experimental: as §1

[34] = system: KIT(V559D, V654A); settings: at 1 μM
Experimental: as §1

[35] = system: DDR1; settings: at 1 μM
Experimental: as §1

[36] = system: ITK; settings: at 1 μM
Experimental: as §1

[37] = system: ABL1(F317I)-nonphosphorylated; settings: at 1 μM
Experimental: as §1

[38] = system: PDGFRB; settings: at 1 μM
Experimental: as §1

[39] = system: ABL1-phosphorylated; settings: at 1 μM
Experimental: as §1

[40] = system: YES; settings: at 1 μM
Experimental: as §1

Cc1cc2c([nH]1)/C=C1\C(=O)Nc3ccc(cc31)-c1c(nn(C)c1C)OCCCN(C)C2=O [Cpd. 1, [3a(4)Z]-6,9,15,16-tetramethyl-9,10,11,12-tetrahydro-15H-1,17-(ethanediylidene)pyrazolo[4,3-n]dipyrrolo[3,2-g:3′,4′-j][1,5]oxazacyclopentadecine-3,8(2H,5H)-dione]
% Ctrl [1]: 96% | % Ctrl [2]: 85% | % Ctrl [3]: 93% | % Ctrl [4]: 92% | % Ctrl [5]: 100% | % Ctrl [6]: 84% | % Ctrl [7]: 100% | % Ctrl [8]: 83% | % Ctrl [9]: 100% | % Ctrl [10]: 94% | % Ctrl [11]: 86% | % Ctrl [12]: 96% | % Ctrl [13]: 95% | % Ctrl [14]: 84% | % Ctrl [15]: 97% | % Ctrl [16]: 97% | % Ctrl [17]: 85% | % Ctrl [18]: 74% | % Ctrl [19]: 94% | % Ctrl [20]: 96% | % Ctrl [21]: 92% | % Ctrl [22]: 87% | % Ctrl [23]: 95% | % Ctrl [24]: 98% | % Ctrl [25]: 97% | % Ctrl [26]: 93% | % Ctrl [27]: 92% | % Ctrl [28]: 31% | Kd [28]: > 10 µM | % Ctrl [29]: 67% | % Ctrl [30]: 95% | % Ctrl [31]: 86% | % Ctrl [32]: 87% | % Ctrl [33]: 87% | % Ctrl [34]: 100% | % Ctrl [35]: 97% | % Ctrl [36]: 89% | % Ctrl [37]: 91% | % Ctrl [38]: 100% | % Ctrl [39]: 81% | % Ctrl [40]: 100%

Cc1cc2c([nH]1)/C=C1\C(=O)Nc3ccc(cc31)-c1c(nn(C)c1C)COCCN(C)C2=O [Cpd. 2, [3a(4)Z]-6,9,15,16-tetramethyl-10,11,13,15-tetrahydro-2H-1,17-(ethanediylidene)pyrazolo[4,3-m]dipyrrolo[3,2-f:3′,4′-i][1,4]oxazacyclopentadecine-3,8(5H,9H)-dione]
% Ctrl [1]: 64% | % Ctrl [2]: 96% | % Ctrl [3]: 82% | % Ctrl [4]: 67% | % Ctrl [5]: 30% | % Ctrl [6]: 92% | % Ctrl [7]: 100% | % Ctrl [8]: 17% | % Ctrl [9]: 85% | % Ctrl [10]: 96% | % Ctrl [11]: 99% | % Ctrl [12]: 31% | % Ctrl [13]: 5.3% | % Ctrl [14]: 95% | % Ctrl [15]: 24% | % Ctrl [16]: 79% | % Ctrl [17]: 43% | % Ctrl [18]: 98% | % Ctrl [19]: 90% | % Ctrl [20]: 88% | % Ctrl [21]: 60% | % Ctrl [22]: 99% | % Ctrl [23]: 100% | % Ctrl [24]: 100% | % Ctrl [25]: 100% | % Ctrl [26]: 92% | % Ctrl [27]: 100% | % Ctrl [28]: 100% | Kd [28]: > 10 µM | % Ctrl [29]: 95% | % Ctrl [30]: 100% | % Ctrl [31]: 78% | % Ctrl [32]: 57% | % Ctrl [33]: 96% | % Ctrl [34]: 92% | % Ctrl [35]: 100% | % Ctrl [36]: 80% | % Ctrl [37]: 100% | % Ctrl [38]: 79% | % Ctrl [39]: 50% | % Ctrl [40]: 100%

Cc1cc2c([nH]1)/C=C1\C(=O)Nc3c(Cl)cc(cc31)-c1cn(C)nc1COC[C@@H](C)NC2=O [Cpd. 3, [3a(4)Z,10R]-20-chloro-6,10,15-trimethyl-10,11,13,15-tetrahydro-2H-1,17-(ethanediylidene)pyrazolo[4,3-m]dipyrrolo[3,2-f:3′,4′-i][1,4]oxazacyclopentadecine-3,8(5H,9H)-dione]
% Ctrl [1]: 100% | % Ctrl [2]: 100% | % Ctrl [3]: 100% | % Ctrl [4]: 57% | % Ctrl [5]: 3.1% | Kd [5]: 0.12 µM | % Ctrl [6]: 100% | % Ctrl [7]: 80% | % Ctrl [8]: 100% | % Ctrl [9]: 90% | % Ctrl [10]: 55% | % Ctrl [11]: 75% | % Ctrl [12]: 100% | % Ctrl [13]: 69% | % Ctrl [14]: 100% | % Ctrl [15]: 90% | % Ctrl [16]: 92% | % Ctrl [17]: 86% | % Ctrl [18]: 94% | % Ctrl [19]: 96% | % Ctrl [20]: 89% | % Ctrl [21]: 91% | % Ctrl [22]: 100% | % Ctrl [23]: 92% | % Ctrl [24]: 68% | % Ctrl [25]: 73% | % Ctrl [26]: 99% | % Ctrl [27]: 99% | % Ctrl [28]: 71% | Kd [28]: > 10 µM | % Ctrl [29]: 91% | % Ctrl [30]: 100% | % Ctrl [31]: 93% | % Ctrl [32]: 92% | % Ctrl [33]: 97% | % Ctrl [34]: 100% | % Ctrl [35]: 98% | % Ctrl [36]: 100% | % Ctrl [37]: 100% | % Ctrl [38]: 100% | % Ctrl [39]: 96% | % Ctrl [40]: 99%

C[C@@H]1COCc2nn(C)cc2-c2cc(Cl)c3c(c2)/C(=C/c2[nH]ccc2C(=O)N1)C(=O)N3 [Cpd. 4, [3a(4)Z,10R]-20-chloro-10,15-dimethyl-10,11,13,15-tetrahydro-2H-1,17-(ethanediylidene)pyrazolo[4,3-m]dipyrrolo[3,2-f:3′,4′-i][1,4]oxazacyclopentadecine-3,8(5H,9H)-dione]
% Ctrl [1]: 96% | % Ctrl [2]: 96% | % Ctrl [3]: 94% | % Ctrl [4]: 100% | % Ctrl [5]: 0.25% | Kd [5]: 0.029 µM | % Ctrl [6]: 98% | % Ctrl [7]: 75% | % Ctrl [8]: 100% | % Ctrl [9]: 75% | % Ctrl [10]: 56% | % Ctrl [11]: 83% | % Ctrl [12]: 65% | % Ctrl [13]: 35% | % Ctrl [14]: 98% | % Ctrl [15]: 78% | % Ctrl [16]: 92% | % Ctrl [17]: 67% | % Ctrl [18]: 80% | % Ctrl [19]: 100% | % Ctrl [20]: 87% | % Ctrl [21]: 79% | % Ctrl [22]: 97% | % Ctrl [23]: 88% | % Ctrl [24]: 64% | % Ctrl [25]: 68% | % Ctrl [26]: 92% | % Ctrl [27]: 100% | % Ctrl [28]: 48% | Kd [28]: 1.5 µM | % Ctrl [29]: 93% | % Ctrl [30]: 79% | % Ctrl [31]: 90% | % Ctrl [32]: 86% | % Ctrl [33]: 97% | % Ctrl [34]: 99% | % Ctrl [35]: 20% | % Ctrl [36]: 99% | % Ctrl [37]: 95% | % Ctrl [38]: 100% | % Ctrl [39]: 90% | % Ctrl [40]: 95%
